Experimental data published in patent US20230010299A1, “HETEROCYCLIC TRPML1 AGONISTS” (LIBRA THERAPEUTICS, INC., priority 2019, published 2023).

Assays:
[1] = target: T1, TRPML1 (Homo sapiens, UniProt Q9GZU1); assay: Cellular TRPML1 assay (FLIPR TETRA, GCaMP6f calcium read-out); format: cell-based; settings: HEK T-REx/GCaMP6f/TRPML1 cells; Ca2+ response over 300 s, normalized to ML-SA1 50 μM; Ca2+ free or Optimem condition not given; read-out: Ec50 (Activity of TRPML1 agonists)
T1 construct: expressed in transfected cells
T1 sequence (Q9GZU1 whole entry): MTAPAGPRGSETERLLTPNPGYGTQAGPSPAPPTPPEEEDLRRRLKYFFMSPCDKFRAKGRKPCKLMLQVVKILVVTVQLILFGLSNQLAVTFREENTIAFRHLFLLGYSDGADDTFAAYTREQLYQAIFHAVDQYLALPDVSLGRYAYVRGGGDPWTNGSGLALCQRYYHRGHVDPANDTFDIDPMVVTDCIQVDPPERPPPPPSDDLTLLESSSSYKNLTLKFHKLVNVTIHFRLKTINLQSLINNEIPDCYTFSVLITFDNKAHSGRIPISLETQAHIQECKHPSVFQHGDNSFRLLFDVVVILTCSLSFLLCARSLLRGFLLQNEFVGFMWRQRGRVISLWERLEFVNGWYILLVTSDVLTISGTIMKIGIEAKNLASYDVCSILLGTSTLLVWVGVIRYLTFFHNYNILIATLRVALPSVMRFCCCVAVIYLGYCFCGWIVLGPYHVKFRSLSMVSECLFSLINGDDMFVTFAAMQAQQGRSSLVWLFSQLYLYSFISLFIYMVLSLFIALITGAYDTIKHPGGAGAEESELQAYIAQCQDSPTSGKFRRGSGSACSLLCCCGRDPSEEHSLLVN
Procedure, shortened: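 HEK T-REx cells stably expressing TRPML1 and GCaMP6f, assayed 24 h after seeding in Ca2+-free Tyrode's (pH 7.4) or Opti-MEM. Compounds injected on FLIPR Tetra (0.5% DMSO) in dose-response from 100 μM (1:2) or 50 μM (1:3.16); fluorescence kinetics 300 s, referenced to 50 μM ML-SA1 stimulator control.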

[2] = target: T1, TRPML1; assay: TRPML1 manual patch clamp on isolated enlarged endolysosomes; format: cell-based; settings: whole-endolysosome recording, HEK T-REx/GcaMP6f/TRPML1 cells, luminal pH 4.6
Description: TRPML1 —Manual Patch Clamp
Endolysosomal electrophysiology was performed in isolated enlarged endolysosomes using a modified patch-clamp method (Dong et al., 2010). HEK T-REx/GcaMP6f/TRPML1 cells were treated with […] PIKfive inhibitor overnight. Whole-endolysosome recordings were performed on manually isolated enlarged endolysosomes (Dong et al., 2010). In brief, a patch pipette was pressed against a cell and quickly pulled away to slice the cell membrane. Enlarged endolysosomes were released into a dish and a gigaseal between the patch pipette and the enlarged endolysosome was obtained. Negative pressure or voltage steps of several hundred millivolts with millisecond duration were then applied to break into the vacuolar membrane.
Bath (internal/cytoplasmic) solution contained 140 mM K-gluconate, 4 mM NaCl, 1 mM EGTA, 2 mM MgCl2, 0.39 mM CaCl2), 20 mM HEPES (pH was adjusted with KOH to 7.2). The pipette (luminal) solution was standard extracellular solution (modified Tyrode's: 145 mM NaCl, 5 mM KCl, 2 mM CaCl2), 1 mM MgCl2, 10 mM HEPES, 10 mM MES, 10 mM glucose; the pH was adjusted with NaOH to pH 4.6).
Dilution from stock were prepared just before the experiments in the extracellular solution (0.1% final DMSO concentration). DMSO solution was obtained from AppliChem (cat. A3672).
All bath solutions were applied via a perfusion system that allowed us to achieve complete solution exchange within a few seconds.
Data were collected using an HEKA EPC 10 patch-clamp amplifier, and PatchMaster v2x73.5 software (HEKA Elektronik). Whole-endolysosome currents were digitized at 20 kHz. All experiments were conducted at room temperature, and all recordings were analyzed with pClamp 10.7 (Molecular Devices) and GraphPad Prism (V8.00).
TRPML1 current was evoked using the voltage protocol illustrated in FIG. 3, applied every 5 sec. (10 ms at −80 mV; 500 ms ramp from −120 to +40 mV; 10 ms at −80 mV); in the absence (vehicle period, i.e. 0.1% DMSO) and in the presence of the compound (agonist) under investigation.

Row | SMILES | EC50 [1] [nM] | Lysosomal Patch-Clamp Current fold increase Mean ± SEM (n) ([2]; 2.0 uM compound) | Lysosomal Patch-Clamp Current fold increase Mean ± SEM (n) ([2]; 30.0 uM compound)
1 | CN(C)S(=O)(=O)c1ccc(S(=O)(=O)Nc2ccccc2N2CCCCC2)cc1 [Example 6, N1,N1-dimethyl-N4-[2-(piperidin-1-yl)phenyl]benzene-1,4-disulfonamide] | 1700 | 3.3 ± 0.67 (3) | 
2 | CN(C)S(=O)(=O)c1ccc(S(=O)(=O)Nc2ccccc2N2CCN(C(=O)OC(C)(C)C)CC2)cc1 [Example 13, tert-butyl 4-{2-[4-(dimethylsulfamoyl)benzenesulfonamido]phenyl}piperazine-1-carboxylate] | 2100 |  | 27.5 ± 10.8 (2)

Results, then the compound that gave them:

Row | EC50 [1] [nM] | Lysosomal Patch-Clamp Current fold increase Mean ± SEM (n) ([2]; 2.0 uM compound) | Lysosomal Patch-Clamp Current fold increase Mean ± SEM (n) ([2]; 30.0 uM compound) | SMILES
3 | 3000 | 18.0 ± 8.5 (3) |  | CN(C)S(=O)(=O)c1ccc(S(=O)(=O)NC2CCCCC2N2CCC(Oc3ccccc3)CC2)cc1 (racemic) [Example 57, N1,N1-dimethyl-N4-[2-(4-phenoxypiperidin-1-yl)cyclohexyl]benzene-1,4-disulfonamide]
4 | 1600 |  |  | CN(C)S(=O)(=O)c1ccc(S(=O)(=O)Nc2ccccc2N2CCC(Oc3ccccn3)CC2)cc1 [Example 75, N1,N1-dimethyl-N4-{2-[4-(pyridin-2-yloxy)piperidin-1-yl]phenyl}benzene-1,4-disulfonamide]
5 | 1300 |  |  | CN(C)S(=O)(=O)c1ccc(S(=O)(=O)Nc2ccccc2N2CCC(C(=O)OC(C)(C)C)CC2)cc1 [Example 76, f-butyl 1-{2-[4-(dimethylsulfamoyl)benzenesulfonamido]phenyl}piperidine-4-carboxylate]
6 | 1700 |  |  | CN(C)S(=O)(=O)c1ccc(S(=O)(=O)Nc2ccccc2N2CCC(Oc3cnccn3)CC2)cc1 [Example 77, N1,N1-dimethyl-N4-{2-[4-(pyrazin-2-yloxy)piperidin-1-yl]phenyl} benzene-1,4-disulfonamide]
